Test results published in patent US9476099B2 (TRUSTEES OF DARTMOUTH COLLEGE, priority 2012, dated 2016).
Values joined by “and” are separate entries in the source; they are usually repeats but may differ in a detail not shown here. Equal entries are not always repeated.

System: NT2/D1-R1 control and DNMT3B knockdown cells
Assay: Genome-wide expression analysis with PAM clusters, control and DNMT3B knockdown cells (Tables 8-14)
Conditions: sh-3B + aza; 10 nM decitabine, 3 days

Nc1ncn([C@H]2C[C@H](O)[C@@H](CO)O2)c(=O)n1 [aza]
ADAMTSL2 NM_014694 expression Mean: 202.775
ADM NM_001124 expression Mean: 446.451
AFMID NM_0010109 expression Mean: 172.091
AHNAK NM_001620 expression Mean: 254.833
ANAPC13 NM_015391 expression Mean: 377.446
ANXA1 NM_000700 expression Mean: 394.045
ANXA2 NM_0010028 expression Mean: 2283.3
AW972815 expression Mean: 584.452
BAG3 NM_004281 expression Mean: 816.89
BCL11A NM_022893 expression Mean: 345.798
BIRC5 NM_001168 expression Mean: 423.791
BTG2 NM_006763 expression Mean: 242.194
C9orf6 NM_017832 expression Mean: 227.753
C10orf2 NM_021830 expression Mean: 399.327
C10orf58 NM_032333 expression Mean: 578.039
C16orf93 NM_0010149 expression Mean: 214.657
CA2 NM_000067 expression Mean: 486.868
CATSPER2 NM_172097 expression Mean: 970.22
CAV1 NM_001753 expression Mean: 402.328
CCND1 NM_053056 expression Mean: 1996.23
CDKN1A NM_000389 expression Mean: 619.606
CDX1 NM_001804 expression Mean: 237.199
CEACAM1 NM_0010249 expression Mean: 156.04
CIRH1A NM_032830 expression Mean: 1424.13
CLCF1 NM_013246 expression Mean: 200.181
CLDN10 NM_006984 expression Mean: 222.057
CNN3 NM_001839 expression Mean: 732.909
COL7A1 NM_000094 expression Mean: 746.239
COL17A1 NM_000494 expression Mean: 230.283
CRABP2 NM_001878 expression Mean: 1011.8
CRIPT NM_014171 expression Mean: 325.647
CTNNB1 NM_0010982 expression Mean: 258.366
CUEDC1 NM_017949 expression Mean: 215.515
CXCL14 NM_004887 expression Mean: 194.723
CXXC1 NM_014593 expression Mean: 1121.15
CXorf40A NM_178124 expression Mean: 203.34
CYR61 NM_001554 expression Mean: 338.671
DDX51 NM_175066 expression Mean: 1008.46
DIMT1L NM_014473 expression Mean: 616.311
DUSP5 NM_004419 expression Mean: 1159.02
EBI3 NM_005755 expression Mean: 333.316
EIF2C2 NM_012154 expression Mean: 367.506
ELF3 NM_004433 expression Mean: 204.8
ELF4 NM_001421 expression Mean: 365.338
EMILIN2 NM_032048 expression Mean: 230.192
EOMES NM_005442 expression Mean: 289.321
FAM53C NM_016605 expression Mean: 1227.05
FAM123B NM_152424 expression Mean: 759.762
FLJ40504 NM_173624 expression Mean: 1376.6
FOXO3 NM_201559 expression Mean: 274.369
GAD1 NM_000817 expression Mean: 204.457
GAD1 NM_013445 expression Mean: 246.924
GALNAC4S-6 NM_015892 expression Mean: 540.521
GEMIN4 NM_015721 expression Mean: 784.75
GLIPR2 NM_022343 expression Mean: 227.407
GNL3L NM_019067 expression Mean: 289.661
GNL3 NM_206826 expression Mean: 1810.36
GPATCH4 NM_182679 expression Mean: 927.016
GPER NM_0010399 expression Mean: 176.693
GPR56 NM_201524 expression Mean: 189.936
GPR56 NM_201525 expression Mean: 205.229
GPR177 NM_0010022 expression Mean: 158.032 and 231.861
GPR177 NM_024911 expression Mean: 239.092
GTF3C6 NM_138408 expression Mean: 454.993
H2AFY NM_004893 expression Mean: 843.815
HARS NM_002109 expression Mean: 1283.03
HCLS1 NM_005335 expression Mean: 494.474
HES2 NM_019089 expression Mean: 164.558
HSPA1A NM_005346 expression Mean: 348.731
HSPA8 NM_006597 expression Mean: 3799.27
HSPA8 NM_153201 expression Mean: 4636.48
HSPH1 NM_006644 expression Mean: 389.459
ID3 NM_002167 expression Mean: 1623.89
IER3 NM_003897 expression Mean: 406.859
IL2RB NM_000878 expression Mean: 175.269
ITPRIP NM_033397 expression Mean: 226.046
JTV1 NM_006303 expression Mean: 1336.75
KAT2A NM_021078 expression Mean: 704.033
KIAA0101 NM_014736 expression Mean: 230.187
KRT8 NM_002273 expression Mean: 2758.76
LEFTY2 NM_003240 expression Mean: 2484.87
